Data from US20070161551A1, “Methods and compositions for the treatment of lipodystrophy” (priority 2004, published 2007).
Read-outs that look alike come from different tables or passages of the source.

What was measured:
patients with HIV/AIDS = conditions: cited from earlier work; for insulin-like growth factor-I (IGF-I) levels: during treatment
[1] = system: HIV/AIDS wasting patients; conditions: cited from earlier work
[2] = system: AIDS patients that manifest symptoms of HADDS; experiment: Combined rhGH (SEROSTIM) plus statin therapy in AIDS patients with HADDS symptoms; assay type: in vivo, human; conditions: after 3 months; combined therapy versus rhGH alone or statin alone
Protocol: AIDS patients with a history of long-term use (an average of 12 months) of HAART that manifest symptoms of HADDS, including buffalo humps, central adiposity and peripheral muscle wasting associated with fatigue, along with elevated levels of plasma triglycerides and/or cholesterol are selected for the study. Therapy with rhGH (SEROSTIM®) is initiated in all patients at a dose of e.g., 4 mg/day subcutaneously (other concentrations, e.g., 6 mg/day could be used). At the same time, the patients are treated with a statin in a dosage amount of 40 mg/day, which is administered orally. This dosage amount is based on the average dose of statin drugs commonly administered for antilipemic purposes. The patients are maintained on this […] for three months and monitored every two weeks for improvements of fat maldistribution. In parallel therapies, patients are treated with just rhGH and just statin.

[3] = system: patients with overt AIDS wasting; conditions: cited from earlier work
patients with HADDS = conditions: cited from earlier work
normal mice = conditions: cited from earlier work
ob/ob mice = conditions: daily injections, cited from earlier work
[4] = at 12 weeks, not deemed clinically significant (Engleson et al. 1999)
[5] = rhGH 4 to 6 mg/day, by four months (Torres 1999)

rhGH: Recombinant human growth hormone, rhGH, produced by Serono S. A. as SEROSTIM®
insulin-like growth factor-I (IGF-I) levels (patients with HIV/AIDS; 2.5 mg qod): no significant change | insulin-like growth factor-I (IGF-I) levels (patients with HIV/AIDS; 5.0 mg qod): increased significantly | effectiveness of a three-month course of therapy ([1]; over 10,000 HIV/AIDS wasting patients since 1996): effective in the majority of patients | improvement in fat maldistribution [2]: do not experience as dramatic an improvement | lean body mass and weight ([3]; 0.1 mg/kg/day, 12 weeks, compared to placebo): significant increases | tolerability of relatively high doses ([3]; 6 mg/day s.c., many patients with overt AIDS wasting): without developing adverse effects that require dose reduction or cessation of therapy | visceral adiposity (patients with HADDS; Engleson et al. 1999, Mauss et al. 1998): reduce | solitary lipomas (patients with HADDS; Milano et al. 1999): reduce | buffalo hump (patients with HADDS; Torres 1998, 1999): reduce | abdominal girth (patients with HADDS; Wanke et al. 1999): reduce | HDL cholesterol and glucose (patients with HADDS; [4]): increased | total cholesterol and fasting triglycerides (patients with HADDS; [4]): dropped significantly | collective side effects of rhGH administration (patients with HADDS; human, in vivo): swelling of the fingers or paresthesia due to tissue turgor, a few transient elevations of fasting glucose and triglycerides | lean body mass and body cell mass (patients with HADDS; quantified by bioelectrical impedance analysis): increased | change in peripheral lipodystrophy (patients with HADDS; [5]): no change | increase in fat free mass (patients with HADDS; [5]): 5 to 10% | size and firmness of buffalo humps (patients with HADDS; [5]): significantly reduces | truncal adiposity (patients with HADDS; [5]): reduces | changes in body weight, total body fat, or blood lipids (patients with HADDS; rhGH 4 to 6 mg/day, during the treatment period (Torres 1999)): no significant or consistent changes | abnormally accumulated fat, compared to baseline (patients with HADDS; s.c., 3 to 6 mg per day for 12 to 24 weeks): significantly reduces

hGH: Human growth hormone, single polypeptide chain of 191 amino acids having two disulfide bonds
weight loss preceding the study (patients with HIV/AIDS; 5.0 mg qod, four patients who completed the study): reversed | safety of supraphysiologic doses ([1]; in vivo, sc): safely administered

leptin: protein hormone of approximately 16 kDa encoded by the obese (ob) gene; recombinant mouse or human leptin
adipose tissue (normal mice; mouse, in vivo): profound depletion of adipose tissue | body weight (normal mice; mouse, in vivo): lose weight | lean mass (normal mice; mouse, in vivo): increases in lean mass | lipolysis in adipose tissue (normal mice; no apparent effect on lean tissue, species not stated): promotes lipolysis | food intake (ob/ob mice; within a few days): dramatic reduction | reduction in body weight (ob/ob mice; within a month): ~50%
